biological target: human GPR119 (Homo sapiens (Human), UniProt Q8TDV5); assay: AlphaScreen cAMP assay in MIN6 cells stably transfected with human GPR119; assay type: cell-based; details: Min-6/hGPR119 cells, 45 min incubation at room temperature
Description: The compounds of formula I according to the invention modulate the activity of the G-protein-coupled receptor GPR119. The effect of the compounds on the activation of GPR119 and on the stimulation of intracellular cAMP concentration is determined using the AlphaScreen cAMP Assay Kit (Cat. No. #6760625R) made by PerkinElmer.
MIN6 cells [Miyazaki J et al. Endocrinology. 1990 July; 127(1):126-32] are stably transfected with an expression vector for human GPR119 cDNA (Acc. No. NP_848566). Min-6/hGPR119 cells are cultured in DMEM, 10% FBS, 50 μM β-mercaptoethanol, 0.3 mg/mL Geniticin, 2 mM GlutaMAX at 37° C. 5% CO2. For the assay, the cells are seeded in Optiplates (white, 384-well, 160W-barcoded, TC, sterile with lid, Cat. No. #6007688 (Perkin Elmer); 10000 cells/well; 50 μl). The plates covered with lids are then incubated for 24 hours at 37° C./5% CO2. After the medium is aspirated from the wells completely, 10 μl of the test compound are added, the compounds are diluted using stimulating buffer (140 mM NaCl, 3.6 mM KCl, 0.5 mM NaH2PO4, 0.5 mM MgSO4, 1.5 mM CaCl2, 10 mM Hepes, 5 mM NaHCO3; pH 7.4. 0.5 mM IBMX and 0.1% BSA, the final DMSO concentration is 1%). After 45 minutes incubation at room temperature (approx. 20° C.), the cAMP concentrations are determined using the AlphaScreen cAMP Assay Kit (Cat. No. #6760625R from PerkinElmer).

Sequence of human GPR119 (Q8TDV5 whole entry): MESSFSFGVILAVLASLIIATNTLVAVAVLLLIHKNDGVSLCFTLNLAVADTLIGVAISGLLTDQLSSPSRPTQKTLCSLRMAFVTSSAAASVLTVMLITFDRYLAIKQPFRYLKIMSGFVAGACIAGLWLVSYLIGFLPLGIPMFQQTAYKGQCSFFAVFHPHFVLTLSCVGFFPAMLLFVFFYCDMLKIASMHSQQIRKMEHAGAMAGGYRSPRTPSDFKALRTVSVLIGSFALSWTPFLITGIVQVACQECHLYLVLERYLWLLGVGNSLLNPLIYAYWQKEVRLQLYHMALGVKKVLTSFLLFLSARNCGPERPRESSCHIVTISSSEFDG

Going from `CC(C)(C)OC(=O)N1CC[C@H](N(C(=O)c2ccc(-c3cnco3)cc2)C2CC2)[C@@H](F)C1` (single isomer, unassigned) [Example 38] to `CC(C)(C)OC(=O)N1CC[C@@H](N(C(=O)c2ccc(-c3cnco3)cc2)C2CC2)[C@H](F)C1` (single isomer, unassigned) [Example 39], the EC50 rises from 174 nM to 634 nM (3.6-fold). The first is the more potent here.

Compared with `CC(C)(C)OC(=O)N1CC[C@H](N(C(=O)c2ccc(-c3cnco3)cc2)C2CC2)[C@H](F)C1` (single isomer, unassigned) [Example 40], `CC(C)(C)OC(=O)N1CC[C@@H](N(C(=O)c2ccc(-c3cnco3)cc2)C2CC2)[C@@H](F)C1` (single isomer, unassigned) [Example 41] is 15-fold higher in EC50: 2 nM for the first, 30 nM for the second.

First: C[C@@H]1CN(C(=O)OC(C)(C)C)CC[C@@H]1N(C(=O)c1ccc(-c2cnco2)cc1)C1CC1 (single isomer, unassigned) [Example 46]
Second: C[C@H]1CN(C(=O)OC(C)(C)C)CC[C@H]1N(C(=O)c1ccc(-c2cnco2)cc1)C1CC1 (single isomer, unassigned) [Example 47]
The EC50 of the first is 120-fold lower: 7 nM for the first, 855 nM for the second. The first is the more potent here.

Compared with `CC1CC(N(C(=O)c2ccc(-c3cnco3)cc2)C2CC2)CCN1C(=O)OC(C)(C)C` (stereo not shown) [Example 1, 4-[Cyclopropyl-(4-oxazol-5-yl-benzoyl)-amino]-2-methyl-piperidine-1-carboxylic acid tert-butyl ester], `CC1CN(C(=O)OC(C)(C)C)CCC1N(C(=O)c1ccc(-c2cnco2)cc1)C1CC1` (stereo not shown) [Example 2, 4-[Cyclopropyl-(4-oxazol-5-yl-benzoyl)-amino]-3-methyl-piperidine-1-carboxylic acid tert-butyl ester] is 10-fold lower in EC50: 157 nM for the first, 15 nM for the second.

Compared with `C=C(C)OC(=O)N1CCC(N(C(=O)c2ccc(-c3cnco3)cc2)C2CC2)CC1` [Example 3, 4-[Cyclopropyl-(4-oxazol-5-yl-benzoyl)-amino]-piperidine-1-carboxylic acid isopropenyl ester], `CC(C)(O)COC(=O)N1CCC(N(C(=O)c2ccc(-c3cnco3)cc2)C2CC2)CC1` [Example 15, 4-[Cyclopropyl-(4-oxazol-5-yl-benzoyl)-amino]-piperidine-1-carboxylic acid 2-hydroxy-2-methyl-propyl ester] is 36-fold higher in EC50: 124 nM for the first, 4460 nM for the second. The first is the more potent here.

First: CC(C)(C)OC(=O)N1CCC(N(C(=O)c2ccc(-c3ocnc3I)cc2)C2CC2)CC1 [Example 4, 4-{Cyclopropyl-[4-(4-iodo-oxazol-5-yl)-benzoyl]-amino}-piperidine-1-carboxylic acid tert-butyl ester]
Second: Cc1ncoc1-c1ccc(C(=O)N(C2CC2)C2CCN(C(=O)OC(C)(C)C)CC2)cc1 [Example 10, 4-{Cyclopropyl-[4-(4-methyl-oxazol-5-yl)-benzoyl]-amino}-piperidine-1-carboxylic acid tert-butyl ester]
The EC50 of the first is 11-fold higher: 816 nM for the first, 75 nM for the second. The second is the more potent here.

Going from `Cc1nc(-c2ccc(C(=O)N(C3CC3)C3CCN(C(=O)OC(C)(C)C)CC3)cc2)co1` [Example 5, 4-{Cyclopropyl-[4-(2-methyl-oxazol-4-yl)-benzoyl]-amino}-piperidine-1-carboxylic acid tert-butyl ester] to `Cc1ccc(-c2ccc(C(=O)N(C3CC3)C3CCN(C(=O)OC(C)(C)C)CC3)cc2)nn1` [Example 16, 4-{Cyclopropyl-[4-(6-methyl-pyridazin-3-yl)-benzoyl]-amino}-piperidine-1-carboxylic acid tert-butyl ester], the EC50 falls from 884 nM to 76 nM (12-fold).

Going from `CC(C)(C)OC(=O)N1CCC(N(C(=O)c2ccc(-c3cncs3)cc2)C2CC2)CC1` [Example 6, 4-[Cyclopropyl-(4-thiazol-5-yl-benzoyl)-amino]-piperidine-1-carboxylic acid tert-butyl ester] to `CC(C)(C)OC(=O)N1CCC(N(C(=O)c2ccc(-c3cn[nH]c3)cc2)C2CC2)CC1` [Example 12, 4-{Cyclopropyl-[4-(1H-pyrazol-4-yl)-benzoyl]-amino}-piperidine-1-carboxylic acid tert-butyl ester], the EC50 rises from 32 nM to 240 nM (7.5-fold).

Compared with `CC(C)(C)OC(=O)N1CCC(N(C(=O)c2ccc(-c3cnco3)c([N+](=O)[O-])c2)C2CC2)CC1` [Example 7, 4-[Cyclopropyl-(3-nitro-4-oxazol-5-yl-benzoyl)-amino]-piperidine-1-carboxylic acid tert-butyl ester], `CC(C)(C)OC(=O)N1CCC(N(C(=O)c2ccc(-c3cnco3)c(N)c2)C2CC2)CC1` [Example 8, 4-[(3-Amino-4-oxazol-5-yl-benzoyl)-cyclopropyl-amino]-piperidine-1-carboxylic acid tert-butyl ester] is 2.2-fold higher in EC50: 78 nM for the first, 169 nM for the second.

Compared with `COc1cc(C(=O)N(C2CC2)C2CCN(C(=O)OC(C)(C)C)CC2)ccc1-c1cnco1` [Example 9, 4-[Cyclopropyl-(3-methoxy-4-oxazol-5-yl-benzoyl)-amino]-piperidine-1-carboxylic acid tert-butyl ester], `Cc1cc(C(=O)N(C2CC2)C2CCN(C(=O)OC(C)(C)C)CC2)ccc1-c1cnco1` [Example 24, 4-[Cyclopropyl-(3-methyl-4-oxazol-5-yl-benzoyl)-amino]-piperidine-1-carboxylic acid tert-butyl ester] is 8-fold lower in EC50: 650 nM for the first, 81 nM for the second. The second is the more potent here.

Going from `O=C(OC1CCOCC1)N1CCC(N(C(=O)c2ccc(-c3cnco3)cc2)C2CC2)CC1` [Example 11, 4-[Cyclopropyl-(4-oxazol-5-yl-benzoyl)-amino]-piperidine-1-carboxylic acid tetrahydro-pyran-4-yl ester] to `O=C(OCC1CCOCC1)N1CCC(N(C(=O)c2ccc(-c3cnco3)cc2)C2CC2)CC1` [Example 14, 4-[Cyclopropyl-(4-oxazol-5-yl-benzoyl)-amino]-piperidine-1-carboxylic acid tetrahydro-pyran-4-ylmethyl ester], the EC50 rises from 516 nM to 1080 nM (2.1-fold). The first is the more potent here.

First: Cn1cc(-c2ccc(C(=O)N(C3CC3)C3CCN(C(=O)OC(C)(C)C)CC3)cc2)cn1 [Example 13]
Second: CC(C)(C)OC(=O)N1CCC(N(C(=O)c2ccc(-c3ccnnc3)cc2)C2CC2)CC1 [Example 23, 4-[Cyclopropyl-(4-pyridazin-4-yl-benzoyl)-amino]-piperidine-1-carboxylic acid tert-butyl ester]
The EC50 of the first is 1.8-fold higher: 423 nM for the first, 236 nM for the second.

Going from `Cn1cnc(-c2ccc(C(=O)N(C3CC3)C3CCN(C(=O)OC(C)(C)C)CC3)cc2)n1` [Example 17, 4-{Cyclopropyl-[4-(1-methyl-1H-[1,2,4]triazol-3-yl)-benzoyl]-amino}-piperidine-1-carboxylic acid tert-butyl ester] to `Cn1ncnc1-c1ccc(C(=O)N(C2CC2)C2CCN(C(=O)OC(C)(C)C)CC2)cc1` [Example 18, 4-{Cyclopropyl-[4-(2-methyl-2H-[1,2,4]triazol-3-yl)-benzoyl]-amino}-piperidine-1-carboxylic acid tert-butyl ester], the EC50 falls from 2220 nM to 1000 nM (2.2-fold).

Compared with `CC1(OC(=O)N2CCC(N(C(=O)c3ccc(-c4ccc(S(C)(=O)=O)cn4)cc3)C3CC3)CC2)CC1` [Example 19, 4-{Cyclopropyl-[4-(5-methanesulfonyl-pyridin-2-yl)-benzoyl]-amino}-piperidine-1-carboxylic acid 1-methyl-cyclopropyl ester], `CC(C)(C)OC(=O)N1CCC(N(C(=O)c2ccc(-c3ccc(S(C)(=O)=O)cn3)cc2)C2CC2)CC1` [Example 21, 4-{Cyclopropyl-[4-(5-methanesulfonyl-pyridin-2-yl)-benzoyl]-amino}-piperidine-1-carboxylic acid tert-butyl ester] is 24-fold lower in EC50: 1770 nM for the first, 74 nM for the second.

First: CC1(OC(=O)N2CCC(N(C(=O)c3ccc(-c4cnco4)cc3)C3CC3)CC2)CC1 [Example 20, 4-[Cyclopropyl-(4-oxazol-5-yl-benzoyl)-amino]-piperidine-1-carboxylic acid 1-methyl-cyclopropyl ester]
Second: CC(C)(C)OC(=O)N1CCC(N(C(=O)c2ccc(-c3ncon3)cc2)C2CC2)CC1 [Example 25, 4-[Cyclopropyl-(4-[1,2,4]oxadiazol-3-yl-benzoyl)-amino]-piperidine-1-carboxylic acid tert-butyl ester]
The EC50 of the first is 4.6-fold lower: 52 nM for the first, 238 nM for the second.

Going from `CC(C)(C)OC(=O)N1CCC(N(C(=O)c2ccc(-n3cnnn3)cc2)C2CC2)CC1` [Example 22, 4-[Cyclopropyl-(4-tetrazol-1-yl-benzoyl)-amino]-piperidine-1-carboxylic acid tert-butyl ester] to `Cc1nnnn1-c1ccc(C(=O)N(C2CC2)C2CCN(C(=O)OC(C)(C)C)CC2)cc1` [Example 26, 4-{Cyclopropyl-[4-(5-methyl-tetrazol-1-yl)-benzoyl]-amino}-piperidine-1-carboxylic acid tert-butyl ester], the EC50 rises from 137 nM to 224 nM (1.6-fold). The first is the more potent here.

Compared with `Cc1cncnc1-c1ccc(C(=O)N(C2CC2)C2CCN(C(=O)OC(C)(C)C)CC2)cc1` [Example 27, 4-{Cyclopropyl-[4-(5-methyl-pyrimidin-4-yl)-benzoyl]-amino}-piperidine-1-carboxylic acid tert-butyl ester], `CC(C)(C)OC(=O)N1CCC(N(C(=O)c2ccc(-c3cnco3)c(F)c2)C2CC2)CC1` [Example 28, 4-[Cyclopropyl-(3-fluoro-4-oxazol-5-yl-benzoyl)-amino]-piperidine-1-carboxylic acid tert-butyl ester] is 59-fold lower in EC50: 469 nM for the first, 8 nM for the second.
